Results from article PMC8840689, “Bacillus cereus Toxin Repertoire: Diversity of (Iso)cereulide(s)” (Molecules, 2022).

Experiments:
[1] = UPLC retention on RP-BEH-C18 column (analyte hydrophobicity); type: physicochemical; conditions: for RT (retention time on RP-BEH-C18 UPLC column): chromatographic, BEH-C18 2.1 × 150 mm, 1.7 µm, 0.4 mL/min, 45 °C, A aqueous HCOOH (0.1%), B MeCN with HCOOH (0.1%), 93% B to 100% B in 4 min, ESI-TOF-MS, uncalibrated, link to hydrophobicity only implicit
Description: Purification of cereulide (1) and isocereulides H–N (2–8): The purification of 1–8 from the reduced ethanol extract was performed according to the literature. In brief, the extract was diluted with H2O (1:10) for better retention of the target analytes on the column material and pre-fractionated via C18 SPE cartridges (60 mL, 10 g; Chromabond, Macherey-Nagel, Düren, Germany). All obtained methanolic fractions were combined and the solvent was reduced to approx. 150 mL using a rotary evaporator and stored at −20 °C until further use for compound isolation. The sample material was separated via semi-preparative HPLC into 10 fractions (Supplementary Materials, Figure S1), for which the respective eluates were combined and their solvents removed through a rotary evaporator. The obtained HPLC fractions were screened for cereulide (1) and its isocereulides using a UPLC-TOF-MS system Synapt G2-S (Waters, Manchester, UK) in the positive electrospray mode equipped with a 2.1 × 150 mm, 1.7 µm BEH-C18 column (Waters, Manchester, UK) at a flow rate of 0.4 mL/min at 45 °C using aqueous HCOOH (0.1%) as solvent A and MeCN with HCOOH (0.1%) as solvent B. Elution was performed by starting at 93% B, increasing to 100% B in 4 min, holding at 100% B for 2 min, followed by decreasing to 93% in 0.1 min and holding at 93% B for 0.9 min.

[2] = cited from earlier work
From the text: . Cereulide (1) is composed of 12 alternatingly placed α-amino and α-hydroxy acids thought to form the three-time circularly repeating tetradepsipeptide unit D-O-Leu-D-Ala-L-O-Val-L-Val (Figure 1), leading to its characteristic dodecadepsipeptide structure in a rectangular cylindrical shape. Because of its uniqu ...

[3] = tested on: HEp-2 cells; type: cell-based
From the text: (§1) Determination of EC50 of cereulide (1) and isocereulides H–N (2–8) via HEp-2 cell assay. The testing principle of the HEp-2 cell assay is based on the uncoupling of ATP synthesis, effectuated by supplemented ionophores, resulting in a facilitated ion influx into the mitochondria, thus disrupting the membrane potential. As a result, the 50% effective concentration (EC50) gives the amount of toxin required to inactivate half of the viable cells.
HEp-2 cell assay: The cytotoxic activity of 1–8 was determined by quantifying their EC50 using HEp-2 cells, as described previously. In a 96-well microtiter plate assay, a 2% ethanolic minimum essential medium (MEM-Earle’s), containing 2% FCS, 1% sodium pyruvate and 0.4% penicillin-streptomycin (v/v each), was provided to perform stepwise dilution of each toxin solution. As an overall toxicity reference and cell control, the structurally related toxin valinomycin was used analogously, in a range of approx. 2–500 ng/mL. The composition of each toxin sample is listed in the Supplementary Materials, Table S2. The HEp-2 cells were freed from their medium and washed with 5 mL of PBS twice and 5 mL of 0.05% Trypsin/EDTA solution was added. After incubation (8 min, 37 °C, 5% CO2), 10 mL of MEM was added and the cells were resuspended, transferred to a falcon tube and centrifuged (RT, 7 min, 700 rpm). The supernatant was discarded, the cell pellet was suspended in 5 mL of MEM and the cell count was determined via Trypan blue. Finally, the cell count was set to 6.7 × 10^5 cells/mL MEM (1 × 10^5 cells/well); a total of 150 µL of this solution was spiked to each well and the plate was incubated (48 h, 37 °C, 5% CO2). After removing 100 µL of the medium, 10 µL of the cell proliferation reagent WST (cell counting kit) was added and shaken for 1 min (400 rpm) and the plate was incubated (20 min, 37 °C, 5% CO2). To determine cell viability, the extinction at 450 nm/620 nm (TECAN infinite F200) was measured. The respective EC50 values for each sample were then calculated from the obtained dose-response curves and the corresponding applied sample dilution and concentration.
An aliquot of 2 µL of the respective samples with ^13C6-cereulide as an internal standard (100 ng/mL) was applied for the quantitation of 1–8 in the samples, later applied in the HEp-2 cell assay according to the literature, performed on a Waters Xevo TQ-S mass spectrometer (Waters) coupled to an Acquity UPLC i-class core system (Waters) with a binary solvent manager, sample manager and column oven. The system was operated with MassLynx 4.1 SCN 813 Software (Waters) and data processing and analysis were performed with TargetLynx (Waters). The recently reported quantitation method for cereulide and isocereulides A-G [33] was extended by implementing the ammonium adducts of 2–8 using the multiple reaction monitoring mode with the following parameters. Compounds 2, 3 and 7 m/z 1156.6 → qualifier m/z 172.2, 314.2; quantifier m/z 357.2. Compound 4 m/z 1142.6 → qualifier m/z 172.2, 314.2; quantifier m/z 357.2. Compound 5 m/z 1184.6 → qualifier m/z 172.2, 314.2; quantifier m/z 357.2. Compounds 6 and 8 m/z 1186.6 → qualifier m/z 172.2, 314.2; quantifier m/z 357.2. The calibration for the quantitation of the analytes consisted of mixtures of cereulide (0.1–1000 ng/mL in EtOH) and ^13C6-cereulide (100 ng/mL) as an internal standard. Mixtures were prepared from stock solutions and analyzed in triplicate by UPLC-MS/MS. The calibration curve was obtained by plotting the peak area ratios of analytes to internal standard against the concentration ratios of analyte to internal standard for each solution and applying linear regression (origin excluded) to give the equation y=2.5174x+0.0061 with R^2=0.9998 . For 1 and ^13C6-cereulide, the quantifier mass transitions were selected as m/z 1170.7 → m/z 357.2 and m/z 1176.7 → m/z 358.2, respectively. All mass spectrometric and chromatographic parameters were used as reported.

[4] = tested on: blood–brain barrier; conditions: porcine model; cited from earlier work
From the text: (§2) Similar to the antibiotic valinomycin, cereulide unfolds its toxicity potential due to a high affinity for complex formation with alkali metal ions (Li^+, Na^+ and K^+) and ammonium ions, resulting in its biological function as a strong K^+ ionophore and as a K^+ transporter, resulting in cell membrane depolarization.

[5] = tested on: 5–HT3 receptors; conditions: lower concentrations; stimulation of the vagus afferent by binding to 5–HT3 receptors in the duodenum; cited from earlier work
From the text: as §2

[6] = cited from earlier work; remark: listed apart in the source
From the text: as §1

[7] = tested on: HEp-2 cells; conditions: cited from earlier work
From the text: At this point, we can only speculate about the magnitude of the impact that isocereulides have on the overall toxicity of (iso)cereulide-containing B. cereus cell cultures.

Row | Molecule | RT (retention time on RP-BEH-C18 UPLC column) [1] [min] | other results
1 | CC(C)C[C@H]1OC(=O)[C@H](C(C)C)NC(=O)[C@H](C(C)C)OC(=O)[C@@H](C)NC(=O)[C@@H](CC(C)C)OC(=O)[C@H](C(C)C)NC(=O)[C@H](C(C)C)OC(=O)[C@@H](C)NC(=O)[C@@H](CC(C)C)OC(=O)[C@H](C(C)C)NC(=O)[C@H](C(C)C)OC(=O)[C@@H](C)NC1=O [Cereulide, cereulide] | 4.25 | stability to temperatures, pH values and enzymes [2]: inert to a wide range of temperatures, pH values and enzymes; absolute EC50 ([3]; 48 h): 2.44 ng/mL; toxic effect relative to valinomycin at an equally applied concentration ([3]; HEp-2 cells, from EC50 values, data not shown): 13.7 times; crossing of the blood–brain barrier [4]: can cross the blood–brain barrier; emetic effect [5]: provoke vomiting; increased toxicity compared to valinomycin [6]: approx. 15 fold
2 | CC(C)C[C@H]1OC(=O)[C@H](C(C)C)NC(=O)[C@H](C(C)C)OC(=O)CNC(=O)[C@@H](CC(C)C)OC(=O)[C@H](C(C)C)NC(=O)[C@H](C(C)C)OC(=O)[C@@H](C)NC(=O)[C@@H](CC(C)C)OC(=O)[C@H](C(C)C)NC(=O)[C@H](C(C)C)OC(=O)[C@@H](C)NC1=O [Isocereulide H, isocereulide H] | 2.88 | absolute EC50 ([3]; 48 h): 6.62 ng/mL; decreased toxicity effect on HEp-2 cells compared to 1 ([3]; HEp-2 cells, 48 h): 63%
3 | CC[C@@H]1NC(=O)[C@H](C(C)C)OC(=O)[C@@H](C)NC(=O)[C@@H](CC(C)C)OC(=O)[C@H](C(C)C)NC(=O)[C@H](C(C)C)OC(=O)[C@@H](C)NC(=O)[C@@H](CC(C)C)OC(=O)[C@H](C(C)C)NC(=O)[C@H](C(C)C)OC(=O)[C@@H](C)NC(=O)[C@@H](CC(C)C)OC1=O [Isocereulide I, isocereulide I] | 3.40 | hydrophobicity compared with 1 (in words) [1]: slightly more hdrophilic; absolute EC50 ([3]; 48 h): 1.75 ng/mL; toxicity relative to cereulide (1) (reciprocal EC50, cereulide set to 1) ([3]; HEp-2 cells, 48 h): 1.4 fold
4 | D-O-Leu-D-Ala-L-O-Val-L-Val-D-O-Leu-Gly-L-O-Val-L-Val-D-O-Ile-D-Ala-L-O-Val-L-Val (lariat or depsi) [Isocereulide M, isocereulide M, cereulide variant, D-Ala by Gly and D-O-Leu by D-O-Ile] | 3.07 | 
5 | isocereulide A | 4.83 | higher toxicity than cereulide [7]: approximately 8 fold
6 | isocereulide B | 3.83 | 
7 | isocereulide C | 2.52 | 
8 | isocereulide D | 2.88 | 
9 | isocereulide E | 3.83 | 
10 | isocereulide F | 5.00 | 
11 | isocereulide G | 4.56 | 
12 | isocereulide J | 3.57 | 
13 | isocereulide K | 4.59 | hydrophobicity compared with 1 (in words) [1]: more hydrophobic than 1; cytotoxicity compared to 1 ([3]; HEp-2 cells, 48 h): 69%
14 | isocereulide L | 2.76 | 
15 | isocereulide N | 2.76 | 
